Laboratory results reported in PMC8244865, “Recruitment of phospholipase Cγ1 to the non-structural membrane protein pK15 of Kaposi Sarcoma-associated herpesvirus promotes its Src-dependent phosphorylation” (PLoS Pathogens, 2021).

B1: pK15 CT^WT: pK15 cytoplasmic tail fused to GST at its N-terminal end, phosphorylated in vitro by Src (protein)
chain: SQLLNEVELQEVNRDPPNVFGYASILVSGAEESREPSPQPDQSGMSILRVDGGSAFRIDTAQAATQPTDDLYEEVLFPRN
modifications: tyrosine-phosphorylated in vitro by Src; sites not stated for this construct; left off: GST, N-terminal, kept

What was measured:
[1] = test system: PLCγ1 tSH2 domain (Src-mediated phosphorylation, Y^783); test: in vitro Src kinase assay, PLCγ1 tSH2 Y783 phosphorylation; format: biochemical; details: 0.6 μM tSH2, 0.085 μM Src, 1.25–5 μM peptide or fixed 5.0 μM, 37°C, 1 hour or 45 min (method), pY783 Western blot
Protocol: Fig 7 The pK15 CT domain enhances Src-mediated phosphorylation of the PLCγ1 tSH2 domain. (A) The purified PLCγ1 tSH2 domain (0.6 μM) was incubated with limiting amounts (0.085 μM) of recombinant purified Src kinase expressed in insect cells in the presence of increasing concentrations (1.25–5 μM) of phosphorylated peptides representing the last 12 (pK15 12mer) or 35 (pK15 35mer) amino acids of the pK15 cytoplasmic domain for 1 hour at 37°C. The reaction was stopped using SDS sample buffer and analysed by SDS-PAGE and Western blot using an antibody to the PLCγ1 pY^783 residue (top panel) or to the His tag on the recombinant tSH2 domain (bottom panel). (B) Same as above, except that a fixed concentration (5.0 μM) of the 12mer peptide, the 35mer peptide or the pK15 truncation construct GST-pK15 CT^N2 [51] were used. The increased phosphorylation of the tSH2 domain in the presence of the 35mer peptide and pK15 CT^N2 can be seen. (C) Increasing concentrations of the phosphorylated pK15 12mer peptide were used to inhibit the increased src-mediated phosphorylation of tSH2 induced by 2.5 μM of the pK15 35mer peptide. Experimental conditions were as in panel A.
To test the impact of a pK15 CT fragment (pK15 CT^N2) or phosphorylated pK15 peptides representing the last 12 (DDLp[…]) or 35 ([…]pYEEVLFRN) amino acids of pK15 CT on the Src-mediated phosphorylation of the PLCγ1 tSH2 domain, GST-pK15CT^N2 was first phosphorylated with Src in vitro as described in the preceding paragraph. Phosphorylated GST-pK15 CT^N2 or the phosphorylated pK15 peptides, suspended in 50 mM Tris pH7.4, 300 mM NaCl, 1 mM DTT, were then added to the purified recombinant tSH2 domain (0.6 μM) together with a limiting amount of recombinant Src kinase (0.085 μM) in kinase buffer (20 mM Tris pH7.4, 20 mM NaCl, 1 mM DTT, 10 mM MgCl2, 0.2 mM ATP, 0.5 mM Sodium orthovanadate, 0.5 mM β-glycerophosphate) and the reaction allowed to proceed for 45 min. The reaction mix was then analysed by Western blot using an antibody to the phosphorylated Y^783 in the linker region of the PLCγ1 tSH2 domain and an antibody to the 5x His tag. To test the inhibitory effect of the phosphorylated 12mer pK15 peptide on the enhancement of PLCγ1 tSH2 domain phosphorylation induced by the pK15 35mer peptide, increasing concentrations (1.25–5.0 μM) of the 12mer peptide were added to a reaction mix containing the purified recombinant tSH2 domain (2.5 μM), the phosphorylated pK15 35mer (2.5 μM), and recombinant Src kinase (0.085 μM). Following a 45 min incubation at 37°C, the reaction mixture was analysed by Western blot as above.

[2] = test system: PLCγ1 cSH2 domain (in tSH2 aa 545–772); test: crystal structure with truncated PLCγ1 tSH2, cSH2 site; format: binding; details: truncated tSH2 (aa 545–772), resolution 2.1 Å
Protocol: A shortened version of the PLCγ1 tSH2 domain (aa 545–772) lacking the linker peptide connecting the PLCγ1 cSH2 and SH3 domains (see Results section) was cloned into a pET28a vector carrying an N-terminal His Tag and a SUMO sequence. Expression was carried out in E. coli and the protein was purified to homogeneity as described above. His-Tag and SUMO were proteolytically removed using SUMO protease (SIGMA) following the manufacturer’s instructions, and the cleaved protein purified on a HisTrap column. Fractions containing cleaved protein were further purified by size exclusion chromatography (SEC) using a Superdex 75 26/600 column (GE Healthcare) equilibrated with 50mM Tris pH7.5, 150mM NaCl and 1mM TCEP buffer. The purified protein in SEC buffer was added to lyophilized phosphorylated 12mer pK15 peptide (DDLpYEEVLFPRN) in a 1:8 molar ratio (Protein: peptide) at a final concentration of 3mg/ml of peptide and 7.5mg/ml protein. Crystals were grown at 293 K using the sitting-drop vapor diffusion method in drops containing 1μl protein solution mixed with 1 μL reservoir solution containing 30% PEG 4000, 0.1M TrisHCl pH 8.5 and 0.2M sodium acetate. The crystals were flash frozen in the mother liquor containing 30% ethylene glycol and diffraction data were collected at P13 at DESY-Hamburg. Data were processed, scaled and reduced with XDS [75], Pointless and programs from the CCP4 suite. […]

| Molecule | effect on Src-mediated phosphorylation of PLCγ1 tSH2 ([1]; listed as 12mer pK15 peptide) | effect on Src-mediated phosphorylation of PLCγ1 tSH2 ([1]; listed as 12mer peptide) | binding site occupancy in crystal structure [2] | effect on Src-mediated phosphorylation of PLCγ1 tSH2 [1] |
| --- | --- | --- | --- | --- |
| DDLpYEEVLFPRN [pK15 12mer, phosphorylated peptide representing the last 12 amino acids of pK15 CT (DDLp…)] | moderate inhibition | cannot enhance the Src-mediated phosphorylation of PLCγ1 | unambiguously bound to the PLCγ1 cSH2 domain | – |
| B1 | – | – | – | enhanced the Src-mediated phosphorylation of the PLCγ1 tSH2 domain |
